Results: ChEMBL document CHEMBL1152576, “E-Combretastatin and E-resveratrol structural modifications: antimicrobial and cancer cell growth inhibitory beta-E-nitrostyrenes” (Bioorg Med Chem, 2009)
Values after ≈ are worked out from the molar mass of the structure shown. Active and inactive are the calls of the source. The rule behind the calls is not given here.

Experiments:
[1] = system: P388; assay: Cytotoxicity against mouse P388 cells after 48 hrs by sulforhodamine B assay; type: functional; conditions: P388, 48 h, read-out: ED50 (the source's name)
[2] = system: BXPC-3; assay: Cytotoxicity against human BxPC3 cells after 48 hrs by sulforhodamine B assay; type: functional; conditions: BXPC-3, 48 h
[3] = system: MCF7; assay: Cytotoxicity against human MCF7 cells after 48 hrs by sulforhodamine B assay; type: functional; conditions: MCF7, 48 h
[4] = system: SF-295; assay: Cytotoxicity against human SF295 cells after 48 hrs by sulforhodamine B assay; type: functional
[5] = system: SF-268; assay: Cytotoxicity against human SF268 cells after 48 hrs by sulforhodamine B assay; type: functional
[6] = system: NCI-H460; assay: Cytotoxicity against human NCI-H460 cells after 48 hrs by sulforhodamine B assay; type: functional; conditions: NCI-H460, 48 h
[7] = system: KM-20L2; assay: Cytotoxicity against human KM20L2 cells after 48 hrs by sulforhodamine B assay; type: functional; conditions: KM-20L2, 48 h
[8] = system: DU-145; assay: Cytotoxicity against human DU145 cells after 48 hrs by sulforhodamine B assay; type: functional; conditions: DU-145, 48 h
[9] = system: SK-MEL-5; assay: Cytotoxicity against human SK-MEL-5 cells after 48 hrs by sulforhodamine B assay; type: functional
[10] = system: OVCAR-3; assay: Cytotoxicity against human OVCAR-3 cells after 48 hrs by sulforhodamine B assay; type: functional
[11] = system: A498; assay: Cytotoxicity against human A498 cells after 48 hrs by sulforhodamine B assay; type: functional
[12] = Inhibition of tubulin polymerization
[13] = system: Candida albicans; assay: Antimicrobial activity against Candida albicans ATCC 90028 assessed clear zone in inhibition per disk by CLSI disk diffusion susceptibility assay; type: functional
[14] = system: Cryptococcus neoformans; assay: Antimicrobial activity against Cryptococcus neoformans ATCC 90112 assessed clear zone in inhibition per disk by CLSI disk diffusion susceptibility assay; type: functional
[15] = system: Staphylococcus aureus; assay: Antimicrobial activity against Staphylococcus aureus ATCC 29213 assessed clear zone in inhibition per disk by CLSI disk diffusion susceptibility assay; type: functional
[16] = system: Streptococcus pneumoniae; assay: Antimicrobial activity against Streptococcus pneumoniae ATCC 6303 assessed clear zone in inhibition per disk by CLSI disk diffusion susceptibility assay; type: functional
[17] = system: Enterococcus faecalis; assay: Antimicrobial activity against Enterococcus faecalis ATCC 29212 assessed clear zone in inhibition per disk by CLSI disk diffusion susceptibility assay; type: functional
[18] = system: Micrococcus luteus; assay: Antimicrobial activity against Micrococcus luteus Presque Isle 456 assessed clear zone in inhibition per disk by CLSI disk diffusion susceptibility assay; type: functional
[19] = system: Stenotrophomonas maltophilia; assay: Antimicrobial activity against Stenotrophomonas maltophilia ATCC 13637 assessed clear zone in inhibition per disk by CLSI disk diffusion susceptibility assay; type: functional
[20] = system: Escherichia coli; assay: Antimicrobial activity against Escherichia coli ATCC 25922 assessed clear zone in inhibition per disk by CLSI disk diffusion susceptibility assay; type: functional
[21] = system: Enterobacter cloacae; assay: Antimicrobial activity against Enterobacter cloacae ATCC 13047 assessed clear zone in inhibition per disk by CLSI disk diffusion susceptibility assay; type: functional
[22] = system: Neisseria gonorrhoeae; assay: Antimicrobial activity against Neisseria gonorrhoeae ATCC 49226 assessed clear zone of inhibition measured per disk by CLSI disk diffusion susceptibility assay; type: functional
[23] = system: Candida albicans; assay: Antifungal activity against Candida albicans ATCC 90028 after 48 hrs by broth microdilution susceptibility assay; type: functional; conditions: ATCC 90028, 48 h
[24] = system: Cryptococcus neoformans; assay: Antifungal activity against Cryptococcus neoformans ATCC 90112 after 72 hrs by broth microdilution susceptibility assay; type: functional; conditions: ATCC 90112, 72 h
[25] = system: Staphylococcus aureus; assay: Antimicrobial activity against Staphylococcus aureus ATCC 29213 by broth microdilution susceptibility assay; type: functional
[26] = system: Streptococcus pneumoniae; assay: Antimicrobial activity against Streptococcus pneumoniae ATCC 6303 by broth microdilution susceptibility assay; type: functional
[27] = system: Enterococcus faecalis; assay: Antimicrobial activity against Enterococcus faecalis ATCC 29212 by broth microdilution susceptibility assay; type: functional
[28] = system: Micrococcus luteus; assay: Antimicrobial activity against Micrococcus luteus Presque Isle 456 by broth microdilution susceptibility assay; type: functional
[29] = system: Stenotrophomonas maltophilia; assay: Antimicrobial activity against Stenotrophomonas maltophilia ATCC 13637 by broth microdilution susceptibility assay; type: functional
[30] = system: Escherichia coli; assay: Antimicrobial activity against Escherichia coli ATCC 25922 by broth microdilution susceptibility assay; type: functional
[31] = system: Enterobacter cloacae; assay: Antimicrobial activity against Enterobacter cloacae ATCC 13047 by broth microdilution susceptibility assay; type: functional
[32] = system: Neisseria gonorrhoeae; assay: Antimicrobial activity against Neisseria gonorrhoeae ATCC 49226 by broth microdilution susceptibility assay; type: functional
[33] = system: Cryptococcus neoformans; assay: Antifungal activity against Cryptococcus neoformans ATCC 90112 after 48 hrs by broth microdilution susceptibility assay; type: functional; conditions: ATCC 90112, 48 h
[34] = system: Streptococcus pneumoniae; assay: Antimicrobial activity against Streptococcus pneumoniae ATCC 6303 after 24 hrs by broth microdilution susceptibility assay; type: functional; conditions: ATCC 6303, 24 h
[35] = system: Neisseria gonorrhoeae; assay: Antimicrobial activity against Neisseria gonorrhoeae ATCC 49226 after 24 hrs by broth microdilution susceptibility assay; type: functional; conditions: ATCC 49226, 24 h
[36] = system: Candida albicans; assay: Antifungal activity against Candida albicans ATCC 90028 after 24 hrs by broth microdilution susceptibility assay; type: functional; conditions: ATCC 90028, 24 h

SMILES | EC50 [1] | GI50 [2] | GI50 [3] | GI50 [6] | GI50 [7] | GI50 [8] | GI50 [9] | GI50 [10] | GI50 [11] | IC50 [12] | MIC [13] | MIC [14] | MIC [15] | MIC [16] | MIC [17] | MIC [18] | MIC [19] | MIC [20] | MIC [21] | MIC [22] | further results
COc1cc(/C=C/[N+](=O)[O-])cc(OC)c1O | 2.2 µg/mL (≈ 9.77 µM) | 1.5 µg/mL (≈ 6.66 µM) | 0.44 µg/mL (≈ 1.95 µM) | 0.38 µg/mL (≈ 1.69 µM) | 1.1 µg/mL (≈ 4.88 µM) | 0.36 µg/mL (≈ 1.6 µM) | inactive | inactive | inactive | 8.5 µM | 50 µg | 25 µg | >100 µg | 6.25 µg | 50 µg | >100 µg | 50 µg | >100 µg | >100 µg | 1.56 µg | GI50 [4]: inactive; GI50 ([5]; SF-268, 48 h): 0.54 µg/mL (≈ 2.4 µM); MIC [23]: > 64 µg/mL; MIC [24]: 64 µg/mL (≈ 284 µM); MIC [25]: > 64 µg/mL; MIC [26]: 64 µg/mL (≈ 284 µM); MIC [27]: > 64 µg/mL; MIC [28]: > 64 µg/mL; MIC [29]: > 64 µg/mL; MIC [30]: > 64 µg/mL; MIC [31]: > 64 µg/mL; MIC [32]: 4 µg/mL (≈ 17.8 µM); MFC [33]: 64 µg/mL (≈ 284 µM); MBC [34]: > 64 µg/mL; MBC [35]: 4 µg/mL (≈ 17.8 µM)
O=[N+]([O-])/C=C/c1ccc(O)cc1 | 1.5 µg/mL (≈ 9.08 µM) | 1.6 µg/mL (≈ 9.69 µM) | 0.48 µg/mL (≈ 2.91 µM) | 1.7 µg/mL (≈ 10.3 µM) | 1.5 µg/mL (≈ 9.08 µM) | 1.5 µg/mL (≈ 9.08 µM) | inactive | inactive | inactive | 10 µM | 12.5 µg | 6.25 µg | 50 µg | 6.25 µg | 6.25 µg | >100 µg | 6.25 µg | 12.5 µg | 25 µg | <0.78 µg | GI50 ([4]; SF-295, 48 h): 1.7 µg/mL (≈ 10.3 µM); GI50 [5]: inactive; MIC [23]: 16 µg/mL (≈ 96.9 µM); MIC [24]: 8 µg/mL (≈ 48.4 µM); MIC [25]: > 64 µg/mL; MIC [26]: 64 µg/mL (≈ 388 µM); MIC [27]: > 64 µg/mL; MIC [28]: > 64 µg/mL; MIC [29]: > 64 µg/mL; MIC [30]: > 64 µg/mL; MIC [31]: > 64 µg/mL; MIC [32]: 4 µg/mL (≈ 24.2 µM); MFC [36]: 16 µg/mL (≈ 96.9 µM); MFC [33]: 8 µg/mL (≈ 48.4 µM); MBC [35]: 4 µg/mL (≈ 24.2 µM)
COc1ccc(/C=C/[N+](=O)[O-])cc1OC | 0.34 µg/mL (≈ 1.63 µM) | 1.5 µg/mL (≈ 7.17 µM) | 0.53 µg/mL (≈ 2.53 µM) | 0.46 µg/mL (≈ 2.2 µM) | 1.3 µg/mL (≈ 6.21 µM) | 1.4 µg/mL (≈ 6.69 µM) | inactive | inactive | inactive | 6 µM | 6.25 µg | 3.12 µg | 25 µg | 12.5 µg | 25 µg | 50 µg | >100 µg | 25 µg | >100 µg | 0.78 µg | GI50 [4]: inactive; GI50 ([5]; SF-268, 48 h): 0.71 µg/mL (≈ 3.39 µM); MIC [23]: 16 µg/mL (≈ 76.5 µM); MIC [24]: 16 µg/mL (≈ 76.5 µM); MIC [25]: > 64 µg/mL; MIC [26]: > 64 µg/mL; MIC [27]: > 64 µg/mL; MIC [28]: > 64 µg/mL; MIC [29]: > 64 µg/mL; MIC [30]: > 64 µg/mL; MIC [31]: > 64 µg/mL; MIC [32]: 4 µg/mL (≈ 19.1 µM); MFC [36]: 16 µg/mL (≈ 76.5 µM); MFC [33]: 16 µg/mL (≈ 76.5 µM); MBC [35]: 4 µg/mL (≈ 19.1 µM)
